“Also recorded” adds a separate entry of the source.
Experiments:
[1] = Vesicle stability in storage / PBS (CF encapsulation, size)
Method: Vesicle stability: To determine vesicle stability, samples of carboxyfluorescein (CF)-loaded vesicles (see below method for loading vesicles with CF and determination of percent encapsulation) were incubated in PBS and percent encapsulation was determined at different times.
To determine the stability of vesicles with encapsulated protein, vesicle samples were incubated in PBS and the percent encapsulation was determined at different times. Stability was also determined by changes in the vesicle size (by DLS, as was described in previous sections) at various time points after vesicle preparation.
Vesicle stability was evaluated by measuring both changes in the concentration of encapsulated carboxyfluorescein (CF) and vesicles size as a function of time when incubated in PBS at room temperature.
Vesicles were prepared from each of the above formulations by the method of film hydration followed by sonication as described above, and percent CF encapsulation was determined at different times in storage at 4° C.

[2] = Vesicle size and size distribution by dynamic light scattering (DLS); type: physicochemical
Method: Dynamic light scattering (DLS): Vesicle size and homogeneity was determined by DLS using HPPS-NIBS, light scattering apparatus (ALV-Laser, Langen, Germany) with the laser powered at 3 mW HE-Ne laser line (632.8 nm), at the Ilse Katz Institute for Nanoscale Science and Technology of BGU. Standard vesicle solutions were diluted 1:10 and loaded into a cuvette for light scattering measurements. The measurements were conducted at an angle of 173°, during 30-180 seconds, from different positions of the cell in order to avoid measurements of multiple scattering.
Zeta-potential measurements: Particle size and zeta potential were measured by using zeta potential and Particle size analyzer, ZetaPlus, (Brookhaven Instruments Corporation Ltd, NY, USA), in the range of 10-1000 nm, in the Chemistry Department of BGU. Vesicle solutions were diluted 1:10 in appropriate buffers and loaded into a 4 ml cuvette for light scattering measurements. The measurements were conducted at an angle of 90°, at 10 repeated measurements, and zeta potential was estimated as an average of 5 repeated readings.

AChE [3] = biological target: T1, AChE (Homo sapiens, UniProt P22303); assay: Head group hydrolysis by AChE / choline esterases; type: biochemical
T1 sequence (P22303 32-614): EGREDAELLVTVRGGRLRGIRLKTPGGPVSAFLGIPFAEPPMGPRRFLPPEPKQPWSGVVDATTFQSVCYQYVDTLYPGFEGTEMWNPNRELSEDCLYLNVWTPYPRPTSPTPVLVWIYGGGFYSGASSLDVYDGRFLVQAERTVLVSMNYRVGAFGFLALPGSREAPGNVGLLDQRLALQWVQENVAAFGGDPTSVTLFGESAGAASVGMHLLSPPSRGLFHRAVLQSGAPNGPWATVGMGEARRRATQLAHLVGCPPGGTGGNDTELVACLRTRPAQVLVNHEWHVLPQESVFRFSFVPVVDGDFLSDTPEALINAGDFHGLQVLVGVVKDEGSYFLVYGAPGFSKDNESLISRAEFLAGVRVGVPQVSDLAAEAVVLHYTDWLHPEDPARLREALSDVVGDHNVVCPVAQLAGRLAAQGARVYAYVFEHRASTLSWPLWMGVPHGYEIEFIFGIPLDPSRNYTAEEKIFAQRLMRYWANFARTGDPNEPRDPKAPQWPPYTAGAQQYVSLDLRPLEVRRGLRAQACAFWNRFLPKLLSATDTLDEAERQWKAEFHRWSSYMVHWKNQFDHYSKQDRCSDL
Method: FIG. 41: Hydrolysis of the ACh head group of bioamphiphiles GLH-20 and GLH-32 by AChE. Hydrolysis was measured by determining the pH change after addition of AChE to the incubation medium and was converted to change in the proton concentration.

AChE [4] = biological target: T1, AChE; assay: Inhibition of ATC hydrolysis by AChE (Lineweaver-Burk analysis); type: biochemical; details: three concentrations; Km affected, Vmax not
Method: In order to compare between the inhibitory potentials of the two bolaamphiphiles, the rate of ATC hydrolysis was measured in presence of three concentrations of the GLH compounds and assessed the results by a Lineweaver-Burk analysis.

[5] = CF concentration in brain after i.v. injection of CF-loaded vesicles; type: in vivo, mice; details: 30 min
Method: Unless otherwise stated, animals were pretreated 15 min before the injection of the test material by pyridostigmine (o.5 mg/kg, i.m.) to inhibit peripheral ChE and thus, reduce vesicle decapsulation in the blood circulation before they enter the brain. The test material was injected i.v. into the tail vein in a volume of 100-200 µl per mouse.
The test material (either free CF or encapsulated CF) was injected into the tail vein of mice in a volume of up to 200 μl. The quantity of encapsulated CF was always determined prior to the administration and similar amounts of either encapsulated or free CF were injected. At 30 minutes after the injection, mice were anesthetized by Xylazine-Ketamine and blood was withdrawn through cardiac puncture, the mouse was perfused with 10 ml PBS and tissues were dissected out. The specimens were homogenized in PBS, deproteinated by 5% (final concentration) of tricholoro acetic acid (TCA), centrifuged and the supernatants were used for fluorescence measurements.
This experiment mesure accumulation of CF in the brain following i.v. administration. […] 30 min after the injection, the animals were sacrificed, perfused with 10 ml PBS and the brains removed and homogenized, deproteinized by 5% tricholoroacetic acid and fluorescence determined in the supernatants obtained following centrifugation. […]

[6] = Preliminary toxicity studies of vesicles / bolas
[7] = Albumin-FITC fluorescence in cerebral cortex after i.v. injection; type: in vivo; details: mouse cerebral cortex fluorescence
Excerpt: FIG. 5A: Fluorescence in mouse cerebral cortex after i.v. injection of albumin-FITC (non-encapsulated); FIG. 5B: Fluorescence in mouse cerebral cortex after i.v. injection of albumin-FITC encapsulated in GLH-20 vesicles.

[8] = Analgesia after i.v. injection of enkephalin, free or in vesicles; details: i.v. analgesic peptide (enkephalin)
[9] = Trypsinogen encapsulation in bolaamphiphilic vesicles (Sephadex column, UV or fluorescence); type: physicochemical; details: 10 mg/ml GLH-19 + GLH-20 vesicles
[10] = GDNF encapsulation in bolaamphiphilic vesicles; type: physicochemical; details: 12.5 μg/ml GDNF (AlexaFluor-488); 10 mg/ml GLH-19 + GLH-20 vesicles
Method: The encapsulation efficiencies of trypsinogen and GDNF were assessed by first running the sample through a Sephadex G-50 column to remove non-encapsulated protein from the encapsulated protein. The fractions obtained from the column (generally 0.5 ml per fraction) were treated by Triton X-100 reduced form to avoid interference with the absorbance reading of the encapsulated material at 280 nm. The concentration of trypsinogen or GDNF proteins was measured by either UV absorbance at 280 nm, or when the quantities of the proteins were low, the proteins were labeled with AlexaFluor®-488 (see procedure for labeling the proteins below) and their quantities determined by fluorescence spectroscopy. Percent encapsulation was determined by dividing the area under the curve of the vesicle fractions by the total area under the curve, which was the sum of the area under the curve of the vesicle preparation and the area under the curve of the free protein. With the use of a calibration curve the concentrations in each were determined. […]
Since GDNF would be used at sub milligram range and its spectroscopic absorption could not be accurately measured at these concentrations, therefore, fluorescent tagging was investigated as a means of increasing the sensitivity of the determination of low quantities of the encapsulated protein. […]

[11] = tested on: SH-SYSY neuroblastoma cells; assay: GDNF activity: activation of AKT and MAPK; type: cell-based, human; details: 20 ng/ml hGDNF; free, encapsulated or added to empty vesicles; Western blot
Method: To determine the activity of GDNF, we measured the effect of 20 ng/ml hGDNF on the activation of the enzymes AKT and MAPK using SH-SYSY neuroblastoma cells (obtained from the ATTC). For this measurement, we plated the cells in 12 well plates coated with PEI at a density range of 3×10^5-6×10^5 cells/well 48 h prior to the bioassay. Cells were deprived of serum for 2.5 h, stimulated by the test material (plain medium as a control or free GDNF or encapsulated GDNF), washed once with ice-cold PBS and then lysed in […] sample buffer. The lysates were boiled, sonicated and centrifuged and then loaded onto 10% acrylamide gel for SDS-PAGE. After the electrophoresis, the samples were immune-blotted using antibodies against phospho-MAPK44/42 and against phospho-AKT.
The effect of the encapsulation process on GDNF activity was also examined by treating neuroblastoma cells that respond to GDNF by activation of kinases, particularly AKT and MAPK. […] AKT and MAPK are activated when they are phosphorylated and GDNF induces phosphorylation of these enzymes in SH-SY5Y neuroblastoma cells. If GDNF activity is impaired, it will not phosphorylate AKT and MAPK to pAKT and pMAPK, respectively. pAKT and pMAPK can be detected by specific antibodies for the phosphorylated forms of the enzymes on a Western blot.

[12] = Integrity of GDNF after encapsulation (SDS-PAGE); details: monomeric and dimeric forms
Method: Sodium dodecyl sulfate polyacrylamide gel electrophoresis (SDS-PAGE) was used to examine whether the encapsulation process affects the integrity of the encapsulated GDNF. The test samples were applied on a 5%−/15% SDS-polyacrylamide gel and electrophoresis was performed using a running buffer of 14.4 g glycine and 3 g Tris base per Liter with […]. The gels were then stained by Coomasie blue using the Bio-Safe Coomassie staining protocol and then destained for 30 min in water.

[13] = formulated with CHOL and CHEMS at a ratio of 2:1:1
[14] = vesicles from the bolaamphiphile without additives

CCCCCC(OC(=O)C[N+](C)(C)CCOC(C)=O)C(O)C/C=C\CCCCCCCC(=O)NCCCCCCCCCCOC(=O)CCCCCCC/C=C\CC(O)C(CCCCC)OC(=O)C[N+](C)(C)CCOC(C)=O.[Cl-].[Cl-] (stereo not drawn) [GLH-20 (empty vesicles)]
vesicle stability in storage [1]: stable in storage

CCCCCC(OC(=O)C[N+](C)(C)CCOC(C)=O)C(O)C/C=C\CCCCCCCC(=O)NCCCCCCCCCCOC(=O)CCCCCCC/C=C\CC(O)C(CCCCC)OC(=O)C[N+](C)(C)CCOC(C)=O.[Cl-].[Cl-] (stereo not drawn) [GLH-20]
Diameter (nm) [2, 13]: 120 nm | Weight (%) main peak [2, 13]: 100% | Diameter (nm) [2, 14]: 368 nm | Weight of Main peak (%) [2, 14]: 97% | hydrolysis of ACh head group by AChE / ChE (AChE [3]): hydrolyzed by choline esterases; also recorded: significantly faster | type of inhibition of ATC hydrolysis by AChE (AChE [4]): competitive inhibitors

carboxyfluorescein [free CF]
brain penetration of free CF [5]: hardly entered the brain | brain penetration of free CF ([5]; listed as Free CF): did not penetrate into the brain in significant amounts

CCCCCC(OC(=O)CCCC(=O)OCC[N+](C)(C)C)C(O)C/C=C\CCCCCCCC(=O)NCCCCCCCCCCNC(=O)CCCCCCC/C=C\CC(O)C(CCCCC)OC(=O)CCCC(=O)OCC[N+](C)(C)C.[Cl-].[Cl-] (stereo not drawn) [GLH-19]
hydrolysis of ACh head group by AChE / ChE (AChE [3]): not hydrolyzed by AChE | toxicity relative to GLH-20 [6]: less toxic

un-encapsulated albumin-FITC: albumin-FITC (non-encapsulated)
brain accumulation of albumin-FITC [7]: little, if any, brain accumulation

free enkephalin: non-encapsulated enkephalin administered together with empty vesicles (YGGFL; Leu-enkephalin; UniProt P01210 230-234, looked up)
analgesia [8]: not

CCCCCCCCC(OC(=O)C[N+](C)(C)CCOC(C)=O)C(O)CCCCCCCC(=O)OCCCCCCCCCCOC(=O)CCCCCCCC(O)C(CCCCCCCC)OC(=O)C[N+](C)(C)CCOC(C)=O.[Cl-].[Cl-] (stereo not drawn) [GLH-32]
Diameter (nm) [2, 13]: 134 nm | Weight (%) main peak [2, 13]: 100% | Diameter (nm) [2, 14]: 345 nm | Weight of Main peak (%) [2, 14]: 68% | hydrolysis of ACh head group by AChE / ChE (AChE [3]): hydrolyzed by AChE | type of inhibition of ATC hydrolysis by AChE (AChE [4]): competitive inhibitors

B1: trypsinogen: model protein for GDNF, from bovine pancreas (protein, UniProt P00760 18-246, looked up)
pro-form: VDDDDKIVGGYTCGANTVPYQVSLNSGYHFCGGSLINSQWVVSAAHCYKSGIQVRLGEDNINVVEGNEQFISASKSIVHPSYNSNTLNNDIMLIKLKSAASLNSRVASISLPTSCASAGTQCLISGWGNTKSSGTSYPDVLKCLKAPILSDSSCKSAYPGQITSNMFCAGYLEGGKDSCQGDSGGPVVCSGKLQGIVSWGSGCAQKNKPGVYTKVCNYVSWIKQTIASN
modifications: pro-form
notes: model protein for GDNF, from bovine pancreas
percent encapsulation ([9]; 50 μg/ml trypsinogen (AlexaFluor-488)): 54% | percent encapsulation ([9]; 100 μg/ml trypsinogen (AlexaFluor-488)): 42%

B2: GDNF: glial cell line-derived neurotrophic factor, human (protein, UniProt P39905 78-211, looked up)
Glial cell line-derived …: SPDKQMAVLPRRERNRQAAAANPENSRGKGRRGQRGKNRGCVLTAIHLNVTDLGLGYETKEELIFRYCSGSCDAAETTYDKILKNLSRNRRLVSDKVGQACCRPIAFDDDLSFLDDNLVYHILRKHSAKRCGCI
percent encapsulation [10]: 66% | phosphorylation of AKT and MAPK [11]: same degree of phosphorylation | GDNF integrity after encapsulation with sonication [12]: no fragmentation

Reference: patent US20220072098A1 (priority 2012, published 2022)
